Test results reported in patent US20100075960A1 (priority 2006, published 2010).
Structures can show the parent of a compound that is named as a salt.

test system: HCT116; assay: Inhibition of cell proliferation, HCT116; assay type: cell-based; settings: Homo sapiens, HCT-116; 72 h treatment; methylene blue or CellTiter-Glo
Experimental: II. Inhibition of Cell Proliferation by PLK1 Inhibitors.
Exponentially growing cell lines of different tumor origins, cultured in appropriate media containing 10% fetal bovine serum at 37° C. in a 5% CO2 incubator were plated in 96 or 384-well plates. Twenty four hours post-plating, cells were treated with different concentrations of test compounds ranging from 20 μM to 0.04 nM. Several wells were left untreated as a control. Seventy two hours post-treatment, cell numbers were determined using different techniques; 100 μl per well of methylene blue (Sigma M9140) (0.5% in 50:50 Ethanol:water), or 10-100 μl per well of CellTiter-Glo (Promega #G7573), depending on well size. For methylene blue staining, stain was incubated at room temperature for 30 minutes before plates were rinsed and dye solubilized in 1% N-lauroyl sarcosine, sodium salt, (Sigma L5125, in PBS). Plates were read on a microplate reader, measuring the OD at 620 nm. For CellTiter-Glo, plates were incubated at room temperature for 15 minutes and the chemiluminescent signal was read on the Victor V or Envison 2100 reader.
Percent inhibition of cell growth was expressed as percent proliferation relative to 100% proliferation (control). Concentration of test compound that inhibited 50% of cell growth (IC50) was determined by 4 parameter fit of data using XLfit, (value of no cell control was substracted from all samples for background). The data are shown in Table 1 and Table 2 below and represent a compilation of several different experiments each performed using the general parameters outlined above, although minor variations may have been employed in some instances, in Table 1 and Table 2, +=IC50>1 μM; ++=IC50 0.5-1 μM: +++=IC50<0.5 μM.

| IC50 | SMILES |
| --- | --- |
| < 500 nM | C[C@@H](Oc1cc(-n2cnc3cc(-c4cnn(C)c4)ccc32)sc1C(N)=O)c1c(F)ccc(OC2CCN(C)CC2)c1Cl [Example 38, 3-[((1R)-1-{2-Chloro-6-fluoro-3-[(1-methyl-4-piperidinyl)oxy]phenyl}ethyl)oxy]-5-[5-(1-methyl-1H-pyrazol-4-yl)-1H-benzimidazol-1-yl]-2-thiophenecarboxamide] |
| 500 to 1000 nM | COc1cc2ncn(-c3cc(O[C@H](C)c4cccc(OCC5CCN(C(=O)OC(C)(C)C)CC5)c4Cl)c(C(N)=O)s3)c2cc1OC [Example 39, 1,1-Dimethylethyl 4-[({3-[(1R)-1-({2-(aminocarbonyl)-5-[5,6-bis(methyloxy)-1H-benzimidazol-1-yl]-3-thienyl}oxy)ethyl]-2-chlorophenyl}oxy)methyl]-1-piperidinecarboxylate] |
| < 500 nM | COc1cc2ncn(-c3cc(O[C@H](C)c4cccc(OCC5CCNCC5)c4Cl)c(C(N)=O)s3)c2cc1OC [Example 40, 5-[5,6-Bis(methyloxy)-1H-benzimidazol-1-yl]-3-[((1R)-1-{2-chloro-3-[(4-piperidinylmethyl)oxy]phenyl}ethyl)oxy]-2-thiophenecarboxamide] |
| < 500 nM | COc1cc2ncn(-c3cc(O[C@H](C)c4cccc(OCC5CCN(C)CC5)c4Cl)c(C(N)=O)s3)c2cc1OC [Example 41, 5-[5,6-Bis(methyloxy)-1H-benzimidazol-1-yl]-3-{[(1R)-1-(2-chloro-3-{[(1-methyl-4-piperidinyl)methyl]oxy}phenyl)ethyl]oxy}-2-thiophenecarboxamide] |
| < 500 nM | COc1cc2ncn(-c3cc(O[C@H](C)c4cccc(OCCN5CCN(C)CC5)c4Cl)c(C(N)=O)s3)c2cc1OC [Example 42, 5-[5,6-Bis(methyloxy)-1H-benzimidazol-1-yl]-3-{[(1R)-1-(2-chloro-3-{[2-(4-methyl-1-piperazinyl)ethyl]oxy}phenyl)ethyl]oxy}-2-thiophenecarboxamide] |
| > 1000 nM | C[C@@H](Oc1cc(-n2cnc3cc(-c4cnn(C)c4)ccc32)sc1C(N)=O)c1cccc(OCC2CCN(C(=O)OC(C)(C)C)CC2)c1Cl [Example 43, 1,1-Dimethylethyl 4-[({3-[(1R)-1-({2-(aminocarbonyl)-5-[5-(1-methyl-1H-pyrazol-4-yl)-1H-benzimidazol-1-yl]-3-thienyl}oxy)ethyl]-2-chlorophenyl}oxy)methyl]-1-piperidinecarboxylate] |
| < 500 nM | C[C@@H](Oc1cc(-n2cnc3cc(-c4cnn(C)c4)ccc32)sc1C(N)=O)c1cccc(OCC2CCNCC2)c1Cl [Example 44, 3-[((1R)-1-{2-Chloro-3-[(4-piperidinylmethyl)oxy]phenyl}ethyl)oxy]-5-[5-(1-methyl-1H-pyrazol-4-yl)-1H-benzimidazol-1-yl]-2-thiophenecarboxamide trifluoroacetate] |
| < 500 nM | C[C@@H](Oc1cc(-n2cnc3cc(-c4cnn(C)c4)ccc32)sc1C(N)=O)c1cccc(OC2CCN(C(=O)OC(C)(C)C)CC2)c1Cl [Example 46, 1,1-Dimethylethyl 4-({3-[(1R)-1-({2-(aminocarbonyl)-5-[5-(1-methyl-1H-pyrazol-4-yl)-1H-benzimidazol-1-yl]-3-thienyl}oxy)ethyl]-2-chlorophenyl}oxy)-1-piperidinecarboxylate] |
| < 500 nM | Cc1cc(-c2ccc3c(c2)ncn3-c2cc(O[C@H](C)c3cccc(OC4CCN(C)CC4)c3Cl)c(C(N)=O)s2)ccn1 [Example 50, 3-[((1R)-1-{2-Chloro-3-[(1-methyl-4-piperidinyl)oxy]phenyl}ethyl)oxy]-5-[5-(2-methyl-4-pyridinyl)-1H-benzimidazol-1-yl]-2-thiophenecarboxamide] |
| < 500 nM | C[C@@H](Oc1cc(-n2cnc3cc(Br)ccc32)sc1C(N)=O)c1cccc(OC2CCN(C)CC2)c1Cl [Example 51, 5-(5-Bromo-1H-benzimidazol-1-yl)-3-[((1R)-1-{2-chloro-3-[(1-methyl-4-piperidinyl)oxy]phenyl}ethyl)oxy]-2-thiophenecarboxamide] |
| < 500 nM | C[C@@H](Oc1cc(-n2cnc3ccc(Cl)cc32)sc1C(N)=O)c1cccc(OC2CCNCC2)c1Cl [Example 52, 5-(6-Chloro-1H-benzimidazol-1-yl)-3-({(1R)-1-[2-chloro-3-(4-piperidinyloxy)phenyl}ethyl)oxy)-2-thiophenecarboxamide] |
| < 500 nM | C[C@@H](Oc1cc(-n2cnc3ccc(Cl)cc32)sc1C(N)=O)c1cccc(OC2CCN(C)CC2)c1Cl [Example 53, 5-(6-Chloro-1H-benzimidazol-1-yl)-3-[((1R)-1-(2-chloro-3-([1-methyl-4-piperidinyl)oxy]phenyl)}oxy]-2-thiophenecarboxamide] |
| > 1000 nM | C[C@@H](Oc1cc(-n2cnc3ccc(CS(C)(=O)=O)cc32)sc1C(N)=O)c1cccc(OC2CCNCC2)c1Cl [Example 54] |
| > 1000 nM | C[C@@H](Oc1cc(-n2cnc3ccc(CS(C)(=O)=O)cc32)sc1C(N)=O)c1cccc(OC2CCN(C)CC2)c1Cl [Example 55, 3-[((1R)-1-(2-chloro-3-[(1-methyl-4-piperidinyl)oxy]phenyl}ethyl)oxy]-5-(6-[(methylsulfonyl)methyl]1H-benzimidazol-1-yl}-2-thiophenecarboxamide] |
| > 1000 nM | C[C@@H](Oc1cc(-n2cnc3ccc(CS(C)(=O)=O)cc32)sc1C(N)=O)c1cccc(OCC2CCNCC2)c1Cl [Example 56, 3-[((1R)-1-{2-chloro-3-[(4-piperidinylmethyl)oxy]phenyl}ethyl)oxy]-5-{6-[(methylsulfonyl)-methyl]-1H-benzimidazol-1-yl}-2-thiophenecarboxamide] |
| > 1000 nM | C[C@@H](Oc1cc(-n2cnc3ccc(CS(C)(=O)=O)cc32)sc1C(N)=O)c1cccc(OCC2CCCN2C)c1Cl (stereo partly drawn) [Example 57] |
| < 500 nM | C[C@@H](Oc1cc(-n2cnc3cc(OC(F)(F)F)ccc32)sc1C(N)=O)c1cccc(OC2CCNCC2)c1Cl [Example 61] |
| < 500 nM | C[C@@H](Oc1cc(-n2cnc3cc(OC(F)(F)F)ccc32)sc1C(N)=O)c1cccc(OC2CCN(C)CC2)c1Cl [Example 62, 3-[((1R)-1-{2-chloro-3-[(1-methyl-4-piperidinyl)oxy]phenyl}ethyl)oxy]-5-{5-[(trifluoromethyl)oxy]-1H-benzimidazol-1-yl}-2-thiophenecarboxamide] |
| < 500 nM | C[C@@H](Oc1cc(-n2cnc3ccc(OC(F)(F)F)cc32)sc1C(N)=O)c1cccc(OC2CCNCC2)c1Cl [Example 63, 3-({(1R)-1-[2-chloro-3-(4-piperidinyloxy)phenyl]ethyl}oxy)-5-[6-[(trifluoromethyl)oxy]-1H-1-benzimidazol-1-yl}-2-thiophenecarboxamide] |
| < 500 nM | C[C@@H](Oc1cc(-n2cnc3ccc(OC(F)(F)F)cc32)sc1C(N)=O)c1cccc(OC2CCN(C)CC2)c1Cl [Example 64, 3-[((1R)-1-(2-chloro-3-[(1-methyl-4-piperidinyl)oxy]phenyl}ethyl)oxy]-5-{6-[(trifluoromethyl)oxy]-1H-benzimidazol-1-yl}-2-thiophenecarboxamide] |
| < 500 nM | C[C@@H](Oc1cc(-n2cnc3cc(F)c(F)cc32)sc1C(N)=O)c1cccc(OC2CCNCC2)c1Cl [Example 65, 3-({(1R)-1-[2-chloro-3-(4-piperidinyloxy)phenyl]ethyl}oxy)-5-(5,6-difluoro-1H-benzimidazol-1-yl)-2-thiophenecarboxamide] |
| < 500 nM | C[C@@H](Oc1cc(-n2cnc3cc(Cl)c(F)cc32)sc1C(N)=O)c1cccc(OC2CCNCC2)c1Cl [Example 67] |
| < 500 nM | C[C@@H](Oc1cc(-n2cnc3cc(Cl)c(F)cc32)sc1C(N)=O)c1cccc(OC2CCN(C)CC2)c1Cl [Example 68, 5-(5-Chloro-6-fluoro-1H-benzimidazol-1-yl)-3-[((1R)-1-{2-chloro-3-[(1-methyl-4-piperidinyl)oxy]phenyl}ethyl)oxy]-2-thiophenecarboxamide] |
| < 500 nM | C[C@@H](Oc1cc(-n2cnc3cc(F)c(Cl)cc32)sc1C(N)=O)c1cccc(OC2CCNCC2)c1Cl [Example 69, 5-(6-Chloro-5-fluoro-1H-benzimidazol-1-yl)-3-({(1R)-1-[2-chloro-3-(4-piperidinyloxy)phenyl]ethyl}oxy)-2-thiophenecarboxamide] |
| < 500 nM | C[C@@H](Oc1cc(-n2cnc3cc(F)c(Cl)cc32)sc1C(N)=O)c1cccc(OC2CCN(C)CC2)c1Cl [Example 70, 5-(6-Chloro-5-fluoro-1H-benzimidazol-1-yl)-3[((1R)-1-(2-chloro-3-[(1methyl-4-piperidinyl)oxy]phenyl}ethyl)oxy]-2-thiophenecarboxamide] |
| < 500 nM | C[C@@H](Oc1cc(-n2cnc3cc(Cl)c(Cl)cc32)sc1C(N)=O)c1cccc(OC2CCNCC2)c1Cl [Example 71, 3-({(1R)-1-[2-Chloro-3-(4-piperidinyloxy)phenyl]ethyl}oxy)-5-(5,6-dichloro-1H-benzimidazol-1-yl)-2-thiophenecarboxamide] |
| < 500 nM | C[C@@H](Oc1cc(-n2cnc3cc(Cl)c(Cl)cc32)sc1C(N)=O)c1cccc(OC2CCN(C)CC2)c1Cl [Example 72, 3-[((1R)-1-(2-chloro-3-[(1-methyl-4-piperidinyl)oxy]phenyl}ethyl)oxy]-5-(5,6-dichloro-1H-benzimidazol-1-yl)-2-thiophenecarboxamide] |
